Results as given in patent publication US8859599B2, “Androgen receptor modulating compounds, preparation and uses thereof” (priority 2009, dated 2014).
Read-outs that look alike come from different tables or passages of the source.

Columns and labels:
LNCaP cells [1] = assay: Sulforhodamine B (SRB) in vitro chemosensitivity assay on LNCaP cells; type: cell-based; conditions: for LC50: read-out: cytocidal effects by 50% (LC50), LNCaP cells, 144 h exposure; for LC50 / cytocidal effects by 50% (LC50): n.r. = not reached
Procedure: (§1) Sulforhodamine B (SRB) assay was used according to the method by Skehan et al. (JNCI, 1990). Briefly, cells were collected by trypsinization, counted and plated at a density of 5,000 cells/well in 96-well flat-bottomed microtiter plates (100 μl of cell suspension/well). In the chemosensitivity assay, experiments were run in octuplicate, and each experiment was repeated three times. The optical density (OD) of cells was determined at a wavelength of 490 nm by a colorimetric plate reader.
(§2) Growth inhibition and cytocidal effect of drugs were calculated according to the formula reported by Monks et al. (JNCI, 1991): [(ODtreated−ODzero)/(ODcontrol−ODzero)]×100%, when ODtreated is > to ODzero. If ODtreated is above ODzero, treatment has induced a cytostatic effect, whereas if ODtreated is below ODzero, cell killing has occurred. The ODzero depicts the cell number at the moment of drug addition, the ODcontrol reflects the cell number in untreated wells and the ODtreated reflects the cell number in treated wells on the day of the assay. TUNEL Assay
The authors examined the antitumour activity of the compounds for which the synthesis is described above, in the hormone-sensitive prostate cancer cell line LNCaP. (R)-Bicalutamide and the novel compounds were tested at the increasing concentrations of […]. The highest dose used was chosen on the basis of the clinically achievable peak plasma concentration reported in the literature for bicalutamide (Cockshott I D. Clin Pharmacokinet. 2004; 43 (13) 855-78).
After 144-hr exposure time, the cytotoxic effect of the molecules was calculated according to the method of Monks et al. (Monks A, et al., J. Nat. Cancer Inst. 1991; 83: 757-66).

PC-3 = assay: SRB cytotoxicity on PC-3 cells; type: cell-based, human; conditions: PC-3 cells (no AR), 144 h exposure
Procedure: (§3) Finally, compounds were also tested on HepG2 cells, originally isolated from a primary hepatoblastoma of a child, purchased from ATCC.
as §1, §2
(§4) The authors tested the antitumour activity of the compounds also on PC-3 and DU145 cancer cell lines, representative of hormone-refractory prostate cancer due to AR receptor absence.

DU145 = assay: SRB cytotoxicity on DU145 cells; type: cell-based, human; conditions: DU145 cells (no AR), 144 h exposure
Procedure: as §3, §1, §2, §4

LNCaP cells [2] = assay: TUNEL assay of apoptotic cells in LNCaP; type: cell-based, human; conditions: 144-h exposure, 20.0 μM
Procedure: Cells were fixed in 1% paraformaldehyde in PBS on ice for 15 min, suspended in ice cold ethanol (70%) and stored overnight at −20° C. Cells were then washed twice in PBS and resuspended in PBS containing 0.1% Triton X-100 for 5 min at 4° C. Thereafter, samples were incubated in 50 μl of solution containing TdT and FITC-conjugated dUTP deoxynucleotides 1:1 (Roche Diagnostic GmbH, Mannheim, Germany) in a humidified atmosphere for 90 min at 37° C. in the dark, washed in PBS, counterstained with propidium iodide (2.5 μg/ml, MP Biomedicals, Verona, Italy) and RNAse (10 Kunits/ml, Sigma Aldrich, Milan, Italy) for 30 min at 4° C. in the dark and analyzed by flow cytometry.
After the end of drug exposures, medium was removed and cells were detached from the flasks by trypsin treatment, washed twice with PBS and stained according to the different methods specified below. Flow cytometric analysis was performed using a FACS Canto flow cytometer (Becton Dickinson, San Diego, Calif.). Data acquisition and analysis were performed using FACSDiva software (Becton Dickinson). Samples were run in triplicate and 10,000 events were collected for each replica. Data were the average of three experiments, with errors under 5%.
The cells, before TUNEL assay, were continuously exposed to the anti-androgen compounds for 144 hours at the concentration of 20.0 μM.

LNCaP-AR cells = assay: TUNEL assay of apoptotic cells in LNCaP-AR; type: cell-based, human; conditions: LNCaP-AR, 144-h exposure, 20.0 μM, TUNEL
[3] = system: normal stem cells derived from human peripheral blood stem cells; assay: Colony-forming cell assay (GM-CFU); type: cell-based; conditions: highest concentration tested, 14 days incubation
Procedure: The colony-forming cell assay was used as previously described [Motta M R et al., Exp Hematol 1997; 25:1261-1269]. In brief, for each molecule, 5×10^4 cells were plated in duplicate in a complete culture medium (MethoCult H4434, StemCell Technologies, Vancouver, Canada) containing different concentrations (0.2, 2, and 20 μmol/l) of the compound. After 14 days of incubation in a humidified atmosphere of 5% CO2 at the temperature of 37° C., granulocyte macrophage colony-forming unit (GM-CFU) aggregates of more than 50 cells were counted. Control cells were incubated under the same conditions but in drug-free medium.
The authors also evaluated the potential toxicity of some of the novel compounds in normal cells as the ability of the drugs to inhibit clonogenic growth of normal stem cells derived from human peripheral blood stem cells (FIG. 37). The exposure of hematopoietic precursor to the compounds, caused low ((S)-37) or negligible (, (R)-22, (R)-23, (R)-10) toxicity at the highest concentration tested.

[4] = biological target: T1, human androgen receptor (hAR) (Homo sapiens, UniProt P10275); assay: hAR transactivation assay (ARE-luciferase reporter) in Cos-7 cells; type: cell-based
T1 construct: The cDNA coding hAR was cloned into the pSG5 expression vector as reported previously; expressed in transfected cells; host or cells: Cos-7 cells transiently transfected with pSG5-hAR
T1 sequence (P10275 1-920): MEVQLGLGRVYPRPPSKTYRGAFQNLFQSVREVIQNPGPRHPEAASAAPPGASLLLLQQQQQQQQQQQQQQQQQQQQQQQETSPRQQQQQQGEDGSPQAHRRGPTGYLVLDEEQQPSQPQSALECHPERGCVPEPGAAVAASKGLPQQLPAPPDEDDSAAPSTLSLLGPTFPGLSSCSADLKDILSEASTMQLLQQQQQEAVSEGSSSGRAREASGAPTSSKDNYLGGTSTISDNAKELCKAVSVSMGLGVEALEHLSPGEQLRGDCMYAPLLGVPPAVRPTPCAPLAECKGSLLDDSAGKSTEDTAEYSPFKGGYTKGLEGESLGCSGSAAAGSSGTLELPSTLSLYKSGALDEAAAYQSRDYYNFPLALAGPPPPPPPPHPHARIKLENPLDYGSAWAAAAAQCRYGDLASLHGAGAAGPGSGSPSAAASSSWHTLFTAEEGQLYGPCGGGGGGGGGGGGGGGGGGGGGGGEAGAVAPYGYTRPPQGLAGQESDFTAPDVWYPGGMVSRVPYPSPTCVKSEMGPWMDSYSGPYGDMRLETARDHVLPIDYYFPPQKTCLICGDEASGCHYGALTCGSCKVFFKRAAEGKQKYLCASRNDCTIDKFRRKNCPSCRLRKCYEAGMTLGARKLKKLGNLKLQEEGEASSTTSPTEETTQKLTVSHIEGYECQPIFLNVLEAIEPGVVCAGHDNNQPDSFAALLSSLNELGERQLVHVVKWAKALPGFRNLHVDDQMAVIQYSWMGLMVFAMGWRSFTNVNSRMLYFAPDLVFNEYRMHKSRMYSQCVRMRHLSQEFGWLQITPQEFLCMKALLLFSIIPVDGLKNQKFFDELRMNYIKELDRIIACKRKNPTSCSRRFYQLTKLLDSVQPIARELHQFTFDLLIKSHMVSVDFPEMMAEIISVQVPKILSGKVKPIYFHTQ
Procedure: The cDNA coding hAR was cloned into the pSG5 expression vector as reported previously [Chang, C. S., et al., Science (1988)240:324-326]. The 3416 construct (ARE-Luc), containing four copies of the wild-type slp-HRE2 (5′-TGGTCAgccAGTTCT-3′) (SEQ ID No. 1) was cloned in the NheI site in pTK-TATA-Luc [Verrijdt, G. et al., J. Biol. Chem. (2000)275:12298-12305].
For androgen-stimulated transcriptional analysis, 32×10^4 Cos-7 cells were plated in phenol red-free DMEM containing 5% charcoal-stripped serum. After 48 h, the cells were transfected by Superfect (Qiagen) with 0.3 μg of 3416-pTK-TATA-Luc construct, together with 1.5 μg of either pSG5-empty plasmid or pSG5-hAR expressing plasmid. After 18 h, transfected cells were stimulated for 24 h with 10 nM of the synthetic androgen, R1881 (from Perkin-Elmer; dissolved in 0.001% ethanol, final concentration), in the absence or presence of the indicated concentrations of synthetic compounds. When indicated, the synthetic compounds were added alone to the cell medium. […] It was dissolved in 0.001% (final concentration) ethanol. Control cells were treated with the vehicle alone. Lysates were prepared and the luciferase activity was measured using a luciferase assay system (Promega). The results were corrected using CH110-expressed beta-galactosidase activity (Amersham Biosciences) and luciferase activity was expressed as fold induction. Results were obtained from two or three different experiments, each performed in duplicate. Mean and SEM are shown.

HepG2 cells = assay: Cytotoxic activity on hepatoblastoma cell line HepG2; type: cell-based, human; conditions: up to highest concentration tested
Procedure: as §3, §1, §2
The authors evaluated in vitro the potential hepato-toxicity of some of the novel compounds on HepG2 cell line, a human hepatoblastoma cell line that retains the specialized function of normal hepatocytes [Knowles B B, et al., Science 1980, 209:497-499; Aden D P, et al., Nature, 1979, 282:615-616].

[5] = Homo sapiens, LNCaP, 144 h, read-out: Growth inhibition (GI50), LNCaP cells, 144 h exposure

Row | Structure (SMILES) | LC50 (LNCaP cells [1]; Homo sapiens, LNCaP, 144 h) [µM] | cytocidal (cell killing) activity (LNCaP cells [1]; LNCaP cells, 144 h exposure) | GI50 (LNCaP cells [1]; read-out: Growth inhibition (GI50), LNCaP cells, 144 h exposure) [µM] | cytotoxic properties compared to effects on LNCaP and LNCaP-AR cells (PC-3) | cytotoxic properties compared to effects on LNCaP and LNCaP-AR cells (DU145) | Apoptotic cells (%) (LNCaP cells [2]) | Apoptotic cells (%) (LNCaP-AR cells) | GI50 (LNCaP cells [1]; [5]) [µM] | GI50 (LNCaP cells [1]; Homo sapiens, LNCaP cells, 144 h exposure, read-out: Growth inhibition (GI50)) [µM] | cytocidal effects by 50% (LC50) (LNCaP cells [1]; LNCaP cells, 144 h exposure) | cytostatic effect: suppression of cell growth (LNCaP cells [1]; LNCaP cells, 144 h, highest concentration tested) | toxicity: inhibition of clonogenic growth of hematopoietic precursors [3] | inhibition of androgen-induced transcriptional activation (antagonistic activity) ([4]; cells challenged with 10 nM R1881, compound at 10 μM) | agonistic activity, compound alone ([4]; range between 100 nM-10 μM) | potential hepato-toxicity (HepG2 cells)
1 | N#Cc1ccc(NC(=O)[C@@](N)(CS(=O)(=O)c2ccc(F)cc2)c2ccccc2)cc1C(F)(F)F [(R)-9] | 15 | cytocidal activity | 1.6 | significant reduction in their cytotoxic proprieties | significant reduction in their cytotoxic proprieties | 93.5 | 83.5 |  |  |  |  |  |  |  | 
2 | Cc1ccc(S(=O)(=O)N[C@](C)(CS(=O)(=O)c2ccc(F)cc2)C(=O)Nc2ccc(C#N)c(C(F)(F)F)c2)cc1 [(S)-26] | 18.3 |  |  | significant reduction in their cytotoxic proprieties | significant reduction in their cytotoxic proprieties | 77.5 | 91.6 | 6.3 |  |  |  |  |  |  | 
3 | C[C@](O)(CS(=O)(=O)c1ccc(F)cc1)C(=O)Nc1ccc(C#N)c(C(F)(F)F)c1 [(R)-Bicalutamide, reference compound] |  |  |  |  |  | 2.1 | 1.0 |  | 1.8 | n.r. |  |  |  |  | 
4 | CC(C)(C)S(=O)(=O)N[C@@](C)(CS(=O)(=O)c1ccc(F)cc1)C(=O)Nc1ccc(C#N)c(C(F)(F)F)c1 [(R)-22, (R)—N-(4-cyano-3-(trifluoromethyl)phenyl)-2-(1,1-dimethylethylsulfonamido)-3-(4-fluorophenylsulfonyl)-2-methylpropanamide] | 20 |  |  |  |  |  |  | 5.8 |  |  | suppress completely the cell growth | negligible | antagonistic activity | functions as agonist | negligible toxicity
5 | CC(C)(C)S(=O)(=O)N[C@](C)(CS(=O)(=O)c1ccc(F)cc1)C(=O)Nc1ccc(C#N)c(C(F)(F)F)c1 [(S)-22] | 19.8 | cytocidal activity |  | significant reduction in their cytotoxic proprieties | significant reduction in their cytotoxic proprieties | 6.2 | 0.0 | 7 |  |  |  |  |  |  | 
6 | C[C@](N)(CS(=O)(=O)c1ccc(F)cc1)C(=O)Nc1ccc(C#N)c(C(F)(F)F)c1 [(R)-23, (R)-2-amino-N-(4-cyano-3-(trifluoromethyl)phenyl)-3-(4-fluorophenylsulfonyl)-2-methyl propanamide] |  |  |  |  |  |  |  | 10.6 |  | n.r. |  | negligible |  |  | negligible toxicity
